Like-named read-outs stand apart in the source and are kept apart here.
How the values were obtained:
[1] = Heart uptake and urinary output, statement in words; conditions: species not stated
[2] = Hydrophilicity, statement in words; type: physicochemical; conditions: compared with complex TcL2O2+ (L=P53), as indicated by urinary output
[3] = Rat biodistribution of Tc-99m complexes
[4] = Plasma binding study (PD10 column), human plasma; type: in vitro ADME
Method: (§1) 1 ml sample of guinea pig or human plasma or saline (control) were added to 2 ml Eppendorf tubes. To these were then added 100 ul aliquots of the ^99m Tc preparation being studied. Mixing was performed by inverting the tubes several times. A 50 ul sample was then taken for counting and the remainder of the sample (1050 ul) was quantitatively transferred to the top of the PD10 column. The sample was allowed to enter the column matrix and then washed in with 1.5 mls saline. Initially a 2.5 ml aliquot was collected for counting, (dead volume) subsequently 0.5 ml aliquots were collected until a total volume of 16 mls had been used to elute the column. […] Collected fractions were counted in a γ well counter and a graph plotted of percentage recovery was calculated from initial preloading sample and cumulative counts.

[5] = guinea pig, in vivo
[6] = saline
Method: as §1

[7] = in vivo
[8] = Guinea pig biodistribution of Tc-99m complexes; conditions: 60 min p.i.
[9] = guinea pig, serum
Method: as §1

[10] = Protein binding, statement in words; type: in vitro ADME
[11] = rat, in vivo

## COCCCP(CCCOC)CCP(CCCOC)CCCOC [Compound 3]
[1]
  heart uptake: low heart uptake
  urinary output: high urinary output
[2]
  hydrophilicity: substantially higher hydrophilicity
[3]; 2 min p.i.
  Blood: 18.8 % Injected dose/organ
  Heart: 0.44 % Injected dose/organ
  Heart/Blood Counts/Gram Ratio: 0.35
  Heart/Liver Counts/Gram Ratio: 1.71
  Liver: 3.62 % Injected dose/organ
[3]; 60 min p.i.
  Blood: 0.77 % Injected dose/organ
  Heart: 0.09 % Injected dose/organ
  Heart/Blood Counts/Gram Ratio: 1.82
  Heart/Liver Counts/Gram Ratio: 0.88
  Liver: 1.35 % Injected dose/organ

## CCOCC[P+]1(CCOCC)CC[P+](CCOCC)(CCOCC)[Tc-3]12(=[O])(=[O])[P+](CCOCC)(CCOCC)CC[P+]2(CCOCC)CCOCC [[TcO2 (P53)2]^+]
[4]; human, plasma
  percent recovery of Tc99m activity: 65.23%
[4]; in words
  binding to / interaction with human plasma: no significant binding
[5]; 2 min
  Blood: 3.11 % Injected dose/organ
  Heart: 1.33 % Injected dose/organ
  Heart/Blood Counts/Gram Ratio: 10.9
  Heart/Liver Counts/Gram Ratio: 1.90
  Heart/Lung Counts/Gram Ratio: 1.2
  Heart/Muscle Counts/Gram Ratio: 6.12
  Kidney + Urine: 16.7 % Injected dose/organ
  Liver: 11.6 % Injected dose/organ
  Liver + GI: 38.7 % Injected dose/organ
  Lung: 1.14 % Injected dose/organ
  Muscle: 30.0 % Injected dose/organ
[5]; 60 min
  Blood: 0.41 % Injected dose/organ
  Heart: 0.99 % Injected dose/organ
  Heart/Blood Counts/Gram Ratio: 61.9
  Heart/Liver Counts/Gram Ratio: 7.51
  Heart/Muscle Counts/Gram Ratio: 4.10
  Kidney + Urine: 16.1 % Injected dose/organ
  Liver: 2.13 % Injected dose/organ
  Liver + GI: 44.6 % Injected dose/organ
  Lung: 0.47 % Injected dose/organ
  Muscle: 43.4 % Injected dose/organ
[6]
  percent recovery of Tc99m activity: 90.82%
[7]
  heart uptake: good heart uptake
[8]
  Heart/Lung Counts/Gram Ratio: 2.0
[9]
  percent recovery of Tc99m activity: 90.34%
[10]
  protein binding: low protein binding
[3]; 2 min p.i.
  Heart/Blood Counts/Gram Ratio: 10.5
  Heart/Liver Counts/Gram Ratio: 1.52
  Heart/Lung Counts/Gram Ratio: 2.0
[3]; 60 min p.i.
  Liver: 1.62 % Injected dose/organ
[11]; 2 min
  Blood: 2.25 % Injected dose/organ
  Brian: 0.03 % Injected dose/organ
  Heart: 1.66 % Injected dose/organ
  Heart/Muscle Counts/Gram Ratio: 5.94
  Kidney + Urine: 13.2 % Injected dose/organ
  Liver: 14.1 % Injected dose/organ
  Liver + GI: 37.8 % Injected dose/organ
  Lung: 1.44 % Injected dose/organ
  Muscle: 31.6 % Injected dose/organ
[11]; 60 min
  Blood: 0.28 % Injected dose/organ
  Brian: 0.02 % Injected dose/organ
  Heart: 1.68 % Injected dose/organ
  Heart/Blood Counts/Gram Ratio: 86.4
  Heart/Liver Counts/Gram Ratio: 14.4
  Heart/Lung Counts/Gram Ratio: 4.3
  Heart/Muscle Counts/Gram Ratio: 5.74
  Kidney + Urine: 9.29 % Injected dose/organ
  Liver + GI: 42.5 % Injected dose/organ
  Lung: 0.65 % Injected dose/organ
  Muscle: 31.6 % Injected dose/organ

From patent US5045302A, “Ligands and cationic complexes thereof with technetium-99m” (priority 1988, dated 1991)
